Source: patent publication US12590057B2, “Crystalline complexes” (Theracryf PLC, priority 2020, dated 2026)

Columns and labels:
Format in all cases: physicochemical
[1] = Preliminary stability study, related substances by HPLC
Method: Analysis of samples of sulforaphane:alpha-cyclodextrin complexes as prepared herein were carried out by HPLC according to the following method: • Column—Phenomenex Gemini C18, 5 μm, 110 Å, 250×4.6 mm; • Mobile Phase A: Water (+0.1% TFA); • Mobile Phase B: Acetonitrile (+0.1% TFA); • Flow: 1.5 mL/min; • Injection Volume: 10 μL; • Column Temperature: 25° C.; • Run Time: 40 minutes; • Sample preparation—Accurately weighed and transferred about 320 mg±30 mg of the sample to a 25-mL volumetric flask, added about 15 mL of diluent (70% water, 30% acetonitrile, 0.1% TFA) and mixed until dissolved. Diluted to volume with diluent and mixed. Transferred 3-4 mL to a syringe and filtered using a 0.45 PTFE filter, discarding the first 1-2 ml, and filtered into an autosampler vial and sealed with PTFE lined cap (prepared in duplicate); • HPLC Gradient according to Table 12
Sulforaphane and certain related impurity peaks are summarised in Table 13, Characterisation of the impurities was carried out by LC-MS and ^1H-NMR. Relative Retention Times (RRT) are based on the HPLC method described above.
Samples of Form 1 (batch ref. LS19-0004-S-8002), Form 3 prepared by minimally-agitated drying (Example 5.3; batch ref. 491-PAL-18) and Form 3 prepared by continuously-agitated filter drying (Example 5B—trial 5; batch ref. 00173-005) were stored at 5° C. (Table 14) and at 25° C./60% RH (Table 15) for 8 weeks in 60 ml Duma® bottles fitted with 45 mm Duma® caps and samples were analysed by HPLC according to the above method.

[2] = XRPD physical form after storage; conditions: double bagged in HDPE bottle
Method: XRPD diffractograms were collected on a PANalytical Empyrean diffractometer using Cu Kα radiation (45 kV, 40 mA) in transmission geometry. A 0.5° sat, 4 mm mask and 0.04 rad Soller slits with a focusing mirror were used on the incident beam. A PIXcel^3D detector, placed on the diffracted beam, was fitted with a receiving slit and 0.04 rad Soller slits. The software used for data collection was X'Pert Data Collector using X'Pert Operator Interface. The data were analysed and presented using Diffrac Plus EVA or HighScore Plus.
After removal from the vacuum oven (day 0), Example 3 was reanalysed by XRPD in reflection mode on days 7, 9 and 29.
(§1) In a separate study, samples of Form 3 (Example 5.3; batch ref. 491-PAL-18) having an initial water content by KF of 2.3% w/w were tested for water content at various time points after storage double bagged in a HDPE bottle under various conditions as shown in Table 17.

[3] = KF water content of stability samples
Method: The water content of each sample was measured on a Metrohm 874 Oven Sample Processor at 150° C. with 851 Titrano Coulometer using Hydranal Coulomat AG oven reagent and nitrogen purge. Weighed solid samples were introduced into a sealed sample vial. Approximately 10 mg of sample was used per titration and duplicate determinations were made. […] Data collection and analysis were performed using Tiamo software.
The water content of samples of Form 1 (batch ref. LS19-0004-3-8002), Form 3 prepared by minimally-agitated drying ([…]; batch ref. 491-PAL-18) and Form 3 prepared by continuously-agitated filter drying (Example 5B trial 5; batch ref. 00173-005) was analysed by KF at the start of the stability study (initial) and after 2, 4 and 8 weeks storage in 60 ml Duma® bottles fitted with 45 mm Duma® caps (without desiccant) at 25° C./60% RH—see Table 16;
as §1

[4] = 25° C./60% RH stability, Initial
[5] = 2 weeks, Duma bottles without desiccant, 25° C./60% RH
[6] = 4 weeks, Duma bottles without desiccant, 25° C./60% RH
[7] = 8 weeks, Duma bottles without desiccant, 25° C./60% RH
[8] = Initial, Duma bottles without desiccant, 25° C./60% RH study

In the case of C[S+]([O-])CCCCN=C=S.OC[C@H]1O[C@@H]2O[C@H]3[C@H](O)[C@@H](O)[C@@H](O[C@H]4[C@H](O)[C@@H](O)[C@@H](O[C@H]5[C@H](O)[C@@H](O)[C@@H](O[C@H]6[C@H](O)[C@@H](O)[C@@H](O[C@H]7[C@H](O)[C@@H](O)[C@@H](O[C@H]1[C@H](O)[C@H]2O)O[C@@H]7CO)O[C@@H]6CO)O[C@@H]5CO)O[C@@H]4CO)O[C@@H]3CO [Form 3 (Example 5.3)], the “Related substances, HPLC RRT 0.56 (Dimer)” value (from here on “Related substances … (Dimer)”) ([1]; 5° C. stability, 8 wk) is reported as less than 0.05 % Area, the “Related substances, HPLC RRT 0.60 (α-CD adduct)” value ([1]; 5° C. stability, 8 wk) is reported as 1.19 % Area and the “Related substances, HPLC RRT 1.14 (Mixed dimer)” value ([1]; 5° C. stability, 8 wk) is reported as 0.05 % Area. The “Related substances, HPLC RRT 1.21 (Erysolin)” value ([1]; 5° C. stability, 8 wk) was 0.28 % Area, the “Related substances, HPLC RRT 1.58 (Thioether dimer)” value ([1]; 5° C. stability, 8 wk) was 0.07 % Area and the “Related substances, Total Impurities” value ([1]; 5° C. stability, 8 wk) was 1.98 % Area. For the same compound, the “Related substances … (Dimer)” value ([1]; 5° C. stability, Initial) was less than 0.05 % Area, the “Related substances, HPLC RRT 0.60 (α-CD adduct)” value ([1]; 5° C. stability, Initial) was 0.95 % Area and the “Related substances, HPLC RRT 1.14 (Mixed dimer)” value ([1]; 5° C. stability, Initial) was 0.05 % Area. For the same compound, the “Related substances, HPLC RRT 1.21 (Erysolin)” value ([1]; 5° C. stability, Initial) was 0.29 % Area, the “Related substances, HPLC RRT 1.58 (Thioether dimer)” value ([1]; 5° C. stability, Initial) was 0.08 % Area and the “Related substances, Total Impurities” value ([1]; 5° C. stability, Initial) was 1.71 % Area. For the same compound, the “Related substances … (Dimer)” value ([1]; 25° C./60% RH stability, 8 wk) was 0.26 % Area, the “Related substances, HPLC RRT 0.60 (α-CD adduct)” value ([1]; 25° C./60% RH stability, 8 wk) was 3.21 % Area and the “Related substances, HPLC RRT 1.14 (Mixed dimer)” value ([1]; 25° C./60% RH stability, 8 wk) was 0.05 % Area. For the same compound, the “Related substances, HPLC RRT 1.21 (Erysolin)” value ([1]; 25° C./60% RH stability, 8 wk) was 0.27 % Area, the “Related substances, HPLC RRT 1.58 (Thioether dimer)” value ([1]; 25° C./60% RH stability, 8 wk) was 0.07 % Area and the “Related substances, Total Impurities” value ([1]; 25° C./60% RH stability, 8 wk) was 4.57 % Area. The “Related substances … (Dimer)” value [1, 4] was less than 0.05 % Area, the “Related substances, HPLC RRT 0.60 (α-CD adduct)” value [1, 4] was 0.95 % Area and the “Related substances, HPLC RRT 1.14 (Mixed dimer)” value [1, 4] was 0.05 % Area. For the same compound, the “Related substances, HPLC RRT 1.21 (Erysolin)” value [1, 4] was 0.29 % Area, the “Related substances, HPLC RRT 1.58 (Thioether dimer)” value [1, 4] was 0.08 % Area and the “Related substances, Total Impurities” value [1, 4] was 1.71 % Area. For the same compound, the “XRPD main peaks of stability sample” value ([2]; 1 month, 40° C./75% RH) was “concordant with Form 3”, the “XRPD main peaks of stability sample” value ([2]; 3 month, 25° C./60% RH) was “concordant with Form 3” and the KF water content [3, 5] was 2.5 % w/w. The KF water content [3, 6] was 2.1 % w/w, the KF water content ([3]; 5° C., 1 month, double bagged in HDPE bottle) was 4.2 % w/w and the KF water content ([3]; 5° C., 3 months, double bagged in HDPE bottle) was 4.6 % w/w. It also gave a KF water content ([3]; 5° C., 6 months, double bagged in HDPE bottle) of 4.7 % w/w, a KF water content ([3]; 5° C., Initial, double bagged in HDPE bottle) of 2.3 % w/w and a KF water content [3, 7] of 3.2 % w/w. The KF water content ([3]; 25° C./60% RH, 1 month, double bagged in HDPE bottle) was 6.1 % w/w, the KF water content ([3]; 25° C./60% RH, 3 months, double bagged in HDPE bottle) was 5.7 % w/w and the KF water content ([3]; 25° C./60% RH, 6 months, double bagged in HDPE bottle) was 6.1 % w/w. For the same compound, the KF water content ([3]; 25° C./60% RH, Initial, double bagged in HDPE bottle) was 2.3 % w/w, the KF water content ([3]; 40° C./75% RH, 1 month, double bagged in HDPE bottle) was 6.2 % w/w and the KF water content ([3]; 40° C./75% RH, 3 months, double bagged in HDPE bottle) was 6.2 % w/w. It also gave a KF water content ([3]; 40° C./75% RH, Initial, double bagged in HDPE bottle) of 2.3 % w/w and a KF water content [3, 8] of 2.4 % w/w.
With C[S+]([O-])CCCCN=C=S.OC[C@H]1O[C@@H]2O[C@H]3[C@H](O)[C@@H](O)[C@@H](O[C@H]4[C@H](O)[C@@H](O)[C@@H](O[C@H]5[C@H](O)[C@@H](O)[C@@H](O[C@H]6[C@H](O)[C@@H](O)[C@@H](O[C@H]7[C@H](O)[C@@H](O)[C@@H](O[C@H]1[C@H](O)[C@H]2O)O[C@@H]7CO)O[C@@H]6CO)O[C@@H]5CO)O[C@@H]4CO)O[C@@H]3CO [Form 3 (Example 5B-trial 5)] the “Related substances … (Dimer)” value ([1]; 5° C. stability, 8 wk) was 0.15 % Area, the “Related substances, HPLC RRT 0.60 (α-CD adduct)” value ([1]; 5° C. stability, 8 wk) was 0.42 % Area and the “Related substances, HPLC RRT 1.14 (Mixed dimer)” value ([1]; 5° C. stability, 8 wk) was 0.05 % Area. The “Related substances, HPLC RRT 1.21 (Erysolin)” value ([1]; 5° C. stability, 8 wk) was 0.29 % Area, the “Related substances, HPLC RRT 1.58 (Thioether dimer)” value ([1]; 5° C. stability, 8 wk) was less than 0.05 % Area and the “Related substances, Total Impurities” value ([1]; 5° C. stability, 8 wk) was 1.30 % Area. The “Related substances … (Dimer)” value ([1]; 5° C. stability, Initial) was 0.15 % Area, the “Related substances, HPLC RRT 0.60 (α-CD adduct)” value ([1]; 5° C. stability, Initial) was 0.36 % Area and the “Related substances, HPLC RRT 1.14 (Mixed dimer)” value ([1]; 5° C. stability, Initial) was less than 0.05 % Area. The “Related substances, HPLC RRT 1.21 (Erysolin)” value ([1]; 5° C. stability, Initial) was 0.28 % Area, the “Related substances, HPLC RRT 1.58 (Thioether dimer)” value ([1]; 5° C. stability, Initial) was less than 0.05 % Area and the “Related substances, Total Impurities” value ([1]; 5° C. stability, Initial) was 1.16 % Area. For the same compound, the “Related substances … (Dimer)” value ([1]; 25° C./60% RH stability, 8 wk) was 0.28 % Area, the “Related substances, HPLC RRT 0.60 (α-CD adduct)” value ([1]; 25° C./60% RH stability, 8 wk) was 1.15 % Area and the “Related substances, HPLC RRT 1.14 (Mixed dimer)” value ([1]; 25° C./60% RH stability, 8 wk) was 0.06 % Area. For the same compound, the “Related substances, HPLC RRT 1.21 (Erysolin)” value ([1]; 25° C./60% RH stability, 8 wk) was 0.28 % Area, the “Related substances, HPLC RRT 1.58 (Thioether dimer)” value ([1]; 25° C./60% RH stability, 8 wk) was less than 0.05 % Area and the “Related substances, Total Impurities” value ([1]; 25° C./60% RH stability, 8 wk) was 2.35 % Area. For the same compound, the “Related substances … (Dimer)” value [1, 4] was 0.15 % Area, the “Related substances, HPLC RRT 0.60 (α-CD adduct)” value [1, 4] was 0.36 % Area and the “Related substances, HPLC RRT 1.14 (Mixed dimer)” value [1, 4] was less than 0.05 % Area. For the same compound, the “Related substances, HPLC RRT 1.21 (Erysolin)” value [1, 4] was 0.28 % Area, the “Related substances, HPLC RRT 1.58 (Thioether dimer)” value [1, 4] was less than 0.05 % Area and the “Related substances, Total Impurities” value [1, 4] was 1.16 % Area. It also gave a KF water content [3, 5] of 3.3 % w/w, a KF water content [3, 6] of 2.6 % w/w and a KF water content [3, 7] of 3.6 % w/w. It also gave a KF water content [3, 8] of 2.9 % w/w.
